The compounds below were run against T1, human V1a receptor (Homo sapiens, UniProt P37288) (assay: human V1a receptor binding (3H-Vasopressin SPA, HEK293 cell membranes)). Conditions: membranes from HEK293 cells transiently transfected with human V1a receptor, Ki by Cheng-Prussoff, read-out: pki (hV1a) (converted).
T1 construct: expressed in transfected cells; host or cells: HEK293 cells, transiently transfected; cell membranes
Experimental: The human V1a receptor was cloned by RT-PCR from total human liver RNA. The coding sequence was subcloned in an expression vector after sequencing to confirm the identity of the amplified sequence. […] Cell membranes were prepared from HEK293 cells transiently transfected with the expression vector and grown in 20 liter fermenters with the following protocol.
50 g of cells were resuspended in 30 ml freshly prepared ice cold Lysis buffer (50 mM HEPES, 1 mM EDTA, 10 mM MgCl2 adjusted to pH=7.4+complete cocktail of protease inhibitor (Roche Diagnostics)), homogenized with Polytron for 1 min, and sonicated on ice for 2×2 minutes at 80% intensity (Vibracell sonicator). The preparation was centrifuged 20 min at 500 g at 4° C., the pellet was discarded and the supernatant centrifuged 1 hour at 43,000 g at 4° C. (19,000 rpm). The pellet was resuspended in 12.5 ml Lysis buffer+12.5ml Sucrose 20% and homogenized using a Polytron for 1-2 min. The protein concentration was determined by the Bradford method and aliquots were stored at −80° C. until use. For binding studies 60 mg Yttrium silicate SPA beads (Amersham) were mixed with an aliquot of membrane in binding buffer (50 mM Tris, 120 mM NaCl, 5 mM KCl, 2 mM CaCl2, 10 mM MgCl2) for 15 minutes with mixing. 50 ul of bead/membrane mixture was then added to each well of a 96 well plate, followed by 50 ul of 4 nM 3H-Vasopressin (American Radiolabeled Chemicals). For total binding measurement 100 ul of binding buffer were added to the respective wells, for non-specific binding 100 ul of 8.4 mM cold vasopressin were added, and for compound testing 100 ul of a serial dilution of each compound in 2% DMSO were added. The plate was incubated 1 h at room temperature, centrifuged 1 min at 1000 g and counted on a Packard Top-Count. Non-specific binding counts were subtracted from each well and data was normalized to the maximum specific binding set at 100%. To calculate an IC 50 the curve was fitted using a non-linear regression model (XLfit) and the Ki was calculated using the Cheng-Prussoff equation.

T1 sequence (P37288 whole entry): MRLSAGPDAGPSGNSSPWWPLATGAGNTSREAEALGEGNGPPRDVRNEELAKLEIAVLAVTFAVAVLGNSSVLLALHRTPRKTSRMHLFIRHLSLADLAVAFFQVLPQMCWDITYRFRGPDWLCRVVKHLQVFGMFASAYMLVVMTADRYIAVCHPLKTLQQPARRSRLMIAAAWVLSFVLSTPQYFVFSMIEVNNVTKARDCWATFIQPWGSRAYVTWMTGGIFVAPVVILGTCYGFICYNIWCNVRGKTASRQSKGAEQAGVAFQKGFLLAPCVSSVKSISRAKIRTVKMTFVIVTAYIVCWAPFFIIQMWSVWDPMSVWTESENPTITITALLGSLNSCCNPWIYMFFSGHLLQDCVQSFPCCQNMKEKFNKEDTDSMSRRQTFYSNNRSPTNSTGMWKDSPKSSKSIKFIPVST

Ki	SMILES
54.3 nM	COc1ccccc1C1CCN(C(=O)c2cc3cc(Cl)cc(CN4CCOCC4)c3[nH]2)CC1 [Example 11, (5-Chloro-7-morpholin-4-ylmethyl-1H-indol-2-yl)-[4-(2-methoxy-phenyl)-piperidin-1-yl]-methanone]
19.5 nM	COc1cccc(OC)c1C1CCN(C(=O)c2cc3cc(Cl)cc(CC#N)c3[nH]2)CC1 [Example 9, {5-Chloro-2-[4-(2,6-dimethoxy-phenyl)-piperidine-1-carbonyl]-1H-indol-7-yl}-acetonitrile]
6.53 nM	O=C(c1cc2cc(Cl)cc(CN3CCOCC3)c2[nH]1)N1CCC(c2cccc3[nH]c(=O)oc23)CC1 [Example 2, 7-[1-(5-Chloro-7-morpholin-4-ylmethyl-1H-indole-2-carbonyl)-piperidin-4-yl]-3H-benzooxazol-2-one]
40.7 nM	COc1cccc(OC)c1C1CCN(C(=O)c2cc3cc(Cl)ccc3[nH]2)CC1 [Example 5, (5-Chloro-1H-indol-2-yl)-[4-(2,6-dimethoxy-phenyl)-piperidin-1-yl]-methanone]
12.9 nM	N#CCc1cc(Cl)cc2cc(C(=O)N3CCC(c4cccc5[nH]c(=O)oc45)CC3)[nH]c12 [Example 1, {5-Chloro-2-[4-(2-oxo-2,3-dihydro-benzooxazol-7-yl)-piperidine-1-carbonyl]-1H-indol-7-yl}-acetonitrile]
45.7 nM	COc1ccccc1C1CCN(C(=O)c2cc3cc(Cl)cc(CC#N)c3[nH]2)CC1 [Example 10, {5-Chloro-2-[4-(2-methoxy-phenyl)-piperidine-1-carbonyl]-1H-indol-7-yl}-acetonitrile]
50.1 nM	COc1cccc(OC)c1C1CCN(C(=O)c2cc3cc(Cl)ccc3n2CC(=O)N(C)C)CC1 [Example 6, 2-{5-Chloro-2-[4-(2,6-dimethoxy-phenyl)-piperidine-1-carbonyl]-indol-1-yl}-N,N-dimethyl-acetamide]
96.6 nM	Cc1c(C(=O)N2CC=C(c3ccccc3)CC2)[nH]c2c(C)cccc12 [Example 12, (3,7-Dimethyl-1H-indol-2-yl)-(4-phenyl-3,6-dihydro-2H-pyridin-1-yl)-methanone]
86.1 nM	COc1cccc(OC)c1C1CCN(C(=O)c2cc3cccc(CC#N)c3[nH]2)CC1 [Example 8, {2-[4-(2,6-Dimethoxy-phenyl)-piperidine-1-carbonyl]-1H-indol-7-yl}-acetonitrile]
14 nM	COc1cccc(OC)c1C1CCN(C(=O)c2cc3cc(Cl)ccc3n2CC#N)CC1 [Example 7, {5-Chloro-2-[4-(2,6-dimethoxy-phenyl)-piperidine-1-carbonyl]-indol-1-yl}-acetonitrile]

Reference: patent US20080139552A1, “INDOLES” (priority 2006, published 2008)
